US20090069300A1, “ISOQUINOLINYL AND ISOINDOLINYL DERIVATIVES AS HISTAMINE-3 ANTAGONISTS” (Wyeth, priority 2007, published 2009)
Structures can show the parent of a compound that is named as a salt.

Assays:
[1] = target: T1, Human Histamine H3 Receptor (Homo sapiens, UniProt Q9Y5N1); test: Methyl histamine binding in human histamine H3 receptor cell line; details: read-out: H3 Binding Ki
T1 construct: expressed in transfected cells; host or cells: HEK293T (stably transfected; membranes prepared from the cells)
Summary of the method: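 Radioligand binding on membranes (10 μg/well) from a human H3 receptor cell line, 1 nM radioligand, 1 h at 30° C. in 50 mM Tris pH 7.5. Nonspecific binding defined with 10 uM clobenpropit, followed by filtration and scintillation counting. IC50 from four-parameter fit, converted to Ki by Cheng-Prusoff.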

T1 sequence (Q9Y5N1 whole entry): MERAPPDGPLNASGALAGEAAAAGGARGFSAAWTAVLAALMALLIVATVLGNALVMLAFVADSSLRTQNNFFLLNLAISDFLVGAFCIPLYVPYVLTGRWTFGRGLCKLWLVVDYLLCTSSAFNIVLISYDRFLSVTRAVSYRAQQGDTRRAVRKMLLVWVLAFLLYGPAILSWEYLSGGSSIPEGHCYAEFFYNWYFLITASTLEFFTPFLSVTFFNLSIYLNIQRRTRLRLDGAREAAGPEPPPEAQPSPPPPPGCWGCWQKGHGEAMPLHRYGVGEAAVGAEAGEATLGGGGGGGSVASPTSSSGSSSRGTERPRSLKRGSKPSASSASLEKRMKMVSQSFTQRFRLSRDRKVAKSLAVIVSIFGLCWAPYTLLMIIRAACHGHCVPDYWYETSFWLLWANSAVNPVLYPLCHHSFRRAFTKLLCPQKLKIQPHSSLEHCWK

| Compound | melting point | Ki [1] |
| --- | --- | --- |
| CN(C)C(=O)c1ccc(-c2ccc3c(c2)CCN(CCN2CCCC2)C3)cc1 (as salt: hydrochloride) [Example 183, N,N-dimethyl-4-[2-(2-pyrrolidin-1-ylethyl)-1,2,3,4-tetrahydroisoquinolin-6-yl]benzamide] | 248 to 250 °C | – |
| O=C(c1ccc(-c2ccc3c(c2)CCN(CCN2CCCC2)C3)cc1)N1CCCC1 (as salt: hydrochloride) [Example 184, 6-[4-(pyrrolidin-1-ylcarbonyl)phenyl]-2-(2-pyrrolidin-1-ylethyl)-1,2,3,4-tetrahydroisoquinoline] | 241 to 242 °C | – |
| O=C(c1ccc(-c2ccc3c(c2)CCN(CCN2CCCC2)C3)cc1)N1CCCCC1 (as salt: hydrochloride) [Example 185, 6-[4-(piperidin-1-ylcarbonyl)phenyl]-2-(2-pyrrolidin-1-ylethyl)-1,2,3,4-tetrahydroisoquinoline] | 270 to 272 °C | – |
| O=C(c1ccc(-c2ccc3c(c2)CCN(CCN2CCCC2)C3)cc1)N1CCOCC1 (as salt: hydrochloride) [Example 186, 6-[4-(morpholin-4-ylcarbonyl)phenyl]-2-(2-pyrrolidin-1-ylethyl)-1,2,3,4-tetrahydroisoquinoline] | 260 to 261 °C | – |
| O=C1c2ccc(-n3ncc4ccccc43)cc2CCN1CCN1CCCC1 [Example 36, 6-(1H-indazol-1-yl)-2-(2-(pyrrolidin-1-yl)ethyl)-3,4-dihydroiso-quinolin-1(2H)-one hydrochlroride] | 185 to 186 °C | < 10 nM |
| O=C(NC1CCCC1)c1ccc(-c2ccc3c(c2)CCN(CCN2CCCC2)C3=O)cc1 [Example 55, N-cyclopentyl-4-[1-oxo-2-(2-pyrrolidin-1-ylethyl)-1,2,3,4-tetrahydroisoquinolin-6-yl]benzamide] | 258 to 260 °C | < 10 nM |
| CNC(=O)c1ccc(Oc2ccc3c(c2)CCN(CCN2CCCC2)C3=O)cc1 [Example 92, N-methyl-4-{[1-oxo-2-(2-pyrrolidin-1-ylethyl)-1,2,3,4-tetrahydroisoquinolin-6-yl]oxy}benzamide] | 235 to 236 °C | 10.1 to 25 nM |
| CCNC(=O)c1ccc(Oc2ccc3c(c2)CCN(CCN2CCCC2)C3=O)cc1 [Example 93, N-ethyl-4-{[1-oxo-2-(2-pyrrolidin-1-ylethyl)-1,2,3,4-tetrahydroisoquinolin-6-yl]oxy}benzamide] | 215 to 216 °C | < 10 nM |
| CC(C)NC(=O)c1ccc(Oc2ccc3c(c2)CCN(CCN2CCCC2)C3=O)cc1 [Example 94, N-isopropyl-4-{[1-oxo-2-(2-pyrrolidin-1-ylethyl)-1,2,3,4-tetrahydroisoquinolin-6-yl]oxy}benzamide] | 223 to 224 °C | < 10 nM |
| O=C(NC1CCC1)c1ccc(Oc2ccc3c(c2)CCN(CCN2CCCC2)C3=O)cc1 [Example 97, N-cyclobutyl-4-{[1-oxo-2-(2-pyrrolidin-1-ylethyl)-1,2,3,4-tetrahydroisoquinolin-6-yl]oxy}benzamide] | 236 to 237 °C | 10.1 to 25 nM |
| O=C(NC1CC1)c1ccc(Oc2ccc3c(c2)CCN(CCN2CCCC2)C3=O)cc1 [Example 99, N-cyclopropyl-4-{[1-oxo-2-(2-pyrrolidin-1-ylethyl)-1,2,3,4-tetrahydroisoquinolin-6-yl]oxy}benzamid;e] | 227 to 228 °C | < 10 nM |
| O=C(c1ccc(-c2ccc3c(c2)CCN(CCN2CCCC2)C3=O)cc1)C1CC1 [Example 103, 6-[4-(cyclopropylcarbonyl)phenyl]-2-(2-pyrrolidin-1-ylethyl)-3,4-dihydro-isoquinolin-1(2H)-one] | 244 to 246 °C | < 10 nM |
| C[C@@H]1CCCN1CCN1Cc2cc(-c3ccc(C#N)cc3)ccc2C1=O [Example 117, (R)-4-(2-(2-(2-methylpyrrolidin-1-yl)ethyl)-1-oxoisoindolin-5-yl)benzonitrile] | 214 to 216 °C | 10.1 to 25 nM |
| C[C@@H]1CCCN1CCN1Cc2cc(-c3ccc(C(=O)N4CCCC4)cc3)ccc2C1=O [Example 119, 2-{2-[(2R)-2-methylpyrrolidin-1-yl]ethyl}-5-[4-(pyrrolidin-1-ylcarbonyl)phenyl]-isoindolin-1-one] | 184 to 185 °C | > 100 nM |
| O=C(c1ccc(-c2ccc3c(c2)CCN(CCN2CCCC2)C3=O)cc1F)N1CCCC1 [Example 133, 6-[3-fluoro-4-(pyrrolidin-1-ylcarbonyl)phenyl]-2-(2-pyrrolidin-1-ylethyl)-3,4-dihydroisoquinolin-1(2H)-one] | 231 to 232 °C | < 10 nM |
| CS(=O)(=O)c1ccc(-c2ccc3c(c2)CCN(CCN2CCCC2)C3=O)cc1 [Example 135, 6-[4-(methylsulfonyl)phenyl]-2-(2-pyrrolidin-1-ylethyl)-3,4-dihydroisoquinolin-1(2H)-one] | 153 to 155 °C | < 10 nM |
| FC(F)(F)Oc1ccc(-c2ccc3c(c2)CCN(CCN2CCCC2)C3)cc1 [Example 171, 2-(2-pyrrolidin-1-ylethyl)-6-[4-(trifluoromethoxy)phenyl]-1,2,3,4-tetrahydroisoquinoline] | > 230 °C | > 100 nM |
| C[C@@H]1CCCN1CCN1CCc2cc(-c3ccc(F)cc3)ccc2C1 [Example 172, 6-(4-fluorophenyl)-2-{2-[(2R)-2-methylpyrrolidin-1-yl]ethyl}-1,2,3,4-tetrahydroisoquinoline] | 232 to 234 °C | 25.1 to 50 nM |
| Fc1cccc(-c2ccc3c(c2)CCN(CCN2CCCC2)C3)c1 [Example 173, 6-(3-fluorophenyl)-2-(2-pyrrolidin-1-ylethyl)-1,2,3,4-tetrahydroisoquinoline] | 272 to 274 °C | 50.1 to 100 nM |
| Fc1ccc(-c2ccc3c(c2)CCN(CCN2CCCCC2)C3)cc1 [Example 174, 6-(4-fluorophenyl)-2-(2-piperidin-1-ylethyl)-1,2,3,4-tetrahydroisoquinoline] | 272 to 274 °C | 50.1 to 100 nM |
| Fc1ccc(-c2ccc3c(c2)CCN(CCN2CCCCCC2)C3)cc1 [Example 175, 2-(2-azepan-1-ylethyl)-6-(4-fluorophenyl)-1,2,3,4-tetrahydroisoquinoline] | 258 to 260 °C | > 100 nM |
| c1cc2c(cc1-c1ccc3c(c1)OCO3)CCN(CCN1CCCC1)C2 [Example 176, 6-(1,3-benzodioxol-5-yl)-2-(2-pyrrolidin-1-ylethyl)-1,2,3,4-tetrahydroisoquinoline] | 257 to 259 °C | 50.1 to 100 nM |
| Fc1ccc(-c2ccc3c(c2)CCN(CCN2CCCC2)C3)cc1 [Example 177] | 250 to 251 °C | – |
| c1ccc(-c2ccc3c(c2)CCN(CCN2CCCC2)C3)cc1 [Example 178] | 268 to 270 °C | – |
